Assay [1] has as its target Act-EF34. To be noted: binding to Act-EF34; cited from earlier work.
In assay [2] the target is Act-EF34 (C-terminal EF hand domain of α-actinin, actinin-2 residues 823–894) (Homo sapiens, UniProt P35609). The experiment in a line: Isothermal titration calorimetry of palladin peptides with Act-EF34. Format: binding. The following applies: for ΔH / ΔG / stoichiometry of binding: ITC; for ΔH / ΔG: 27 °C; for ΔH: one-binding site model; for ΔG: calculated using standard thermodynamic equations; for stoichiometry of binding: Act-EF34 titrations.

Assay [3] concerns the target T1, palladin peptide WT (Homo sapiens).
T1 chain: Ac-HGQTPAAFLSALLPSQP
The experiment in a line: ITC.

Where no end group is shown, it is not given here.

As for AETAANRICKVLAVNQE [Actinin N-term], the Kd (commonly the constant that tells how readily two partners part at equilibrium) in assay [1] is 568 ± 270 nM.
Take AVATVVAAVDMARVRE [Titin Zr1]: the Kd in assay [1] is 200 to 300 nM.
For the molecule AVATVVAAVDQARVRE [Titin Zr7], the Kd in assay [1] was 100 to 250 nM.
Take Ac-HGQTPAAFLSALLPSQP [Palladin (WT)]: in assay [2], binding was characterised by a dissociation constant (Kd) of 15.7 ± 7.7 µM, the ΔH is -4.5 ± 0.2 kcal/mol, the ΔG is on record as −6.6 kcal/mol*K and the stoichiometry of binding is on record as around 1.
On the same counts, the results for Ac-HGQTSAAFLSALLPSQP [Palladin (FX)] are 19.5 ± 4 µM, -6.0 ± 0.2 kcal/mol, −6.5 kcal/mol*K and around 1.
For FVPKVVISAAKAKEQE [Titin Zr3], in assay [1], the Kd is above 4000 nM.

B1: Act-EF34 (alpha-actinin-2) 823-894 (protein)
chain: ADTDTAEQVIASFRILASDKPYILAEELRRELPPDQAQYCIKRMPAYSGPGSVPGALDYAAFSSALYGESDL
In assay [3], B1 registered a Kd of 15.7 µM.

(Values after publication PMC3226707 (Journal of molecular biology, 2011).)
